Laboratory results as given in patent US20050089495A1, “Transdermal transport of compounds” (priority 2001, published 2005).
Counter-ions that a name gives are not always drawn.

What was measured:
[1] = test system: rats; assay: Efficacy of atropine phosphate compared to atropine sulfate: heart rate after intravenous administration; format: in vivo; details: for heart rate after administration: IV 2 mg/kg in phosphate buffer, baseline approx. 350 bpm
Experimental: The efficacy of atropine phosphate when compared to atropine sulfate was investigated in this example.
Atropine sulfate and atropine phosphate formulated in phosphate buffer and given intravenously (IV) each to two rats at 2 mg/kg resulted similar increases in heart rates.
For example, the baseline heart rate of a rat was approx. 350 bpm and increased to 450 bpm within 15 minutes after administration of atropine (either atropine phosphate or atropine sulfate). Approximately two hours later, normal heart rates were restored. This is regarded as a significant change in pulse rate.

[2] = Transdermal delivery of testosterone and testosterone phosphate in the hairless rat model; total testosterone in plasma; details: topical carrier cream; for concentration of testosterone in blood after application: 1 μg
[3] = females using the patches; cited from earlier work
[4] = Acute transdermal penetration of 3H-Estradiol and 3H-Estradiol Phosphate in the hairless rat model; format: in vivo, female albino hairless rats; details: 24-hour period
[5] = Transdermal delivery of estradiol and estradiol phosphate in the hairless rat model; total estrogens RIA in plasma

Compound	time until normal heart rates were restored ([1]; IV 2 mg/kg)	heart rate after administration [1]	concentration of testosterone in blood after application [2]	further results
CN1[C@@H]2CC[C@H]1CC(OC(=O)C(CO)c1ccccc1)C2.O=P(O)(O)O (stereo partly drawn) [atropine phosphate]	Approximately two	450 bpm	–	effect on pulse rate ([1]; IV 2 mg/kg): effective to increase pulse rate
CN1[C@@H]2CC[C@H]1C[C@@H](OC(=O)C(CO)c1ccccc1)C2 (stereo partly drawn) [atropine sulfate, reference compound]	Approximately two	450 bpm	–	–
Testosterone Phosphate [TP]	–	–	increased	–
C[C@]12CC[C@H]3[C@@H](CCC4=CC(=O)CC[C@@]43C)[C@@H]1CC[C@@H]2O [T, Testosterone]	–	–	increased	maximum concentration of total testosterone in plasma (mean±SD) ([2]; 1 μg on about 4 cm^2 dorsal skin, baseline t=0 subtracted): 30.90 ± 11.00 pg/mL
C[C@]12CC[C@@H]3c4ccc(O)cc4CC[C@H]3[C@@H]1CC[C@@H]2O [E, Estradiol]	–	–	–	females reporting skin irritation [3]: up to 17%
C[C@]12CC[C@@H]3c4ccc(O)cc4CC[C@H]3[C@@H]1CC[C@@H]2OP(=O)(O)O [EP, Estradiol Phosphate]	–	–	–	levels in the epidermis and dermis [4]: Higher levels; plasma concentration of the hormone compared to the E treatment ([5]; equivalent doses applied, 24-hour period): at least twice; concentration of estradiol in blood versus estradiol application ([5]; over a 24-hour period, P<0.01 at 2, 4 and 16 hours): consistently higher
